Data from patent US7989420B2, “Smooth muscle relaxation” (New York Medical College, priority 2006, dated 2011).

Columns and labels:
[1] = test system: bovine pulmonary arteries (BPA); assay: Isometric force generation to serotonin (5-HT) in organ cultured BPA rings; type: cell-based
Method: (§1) Organoid Culture Isolated Arteries for Heme Modulation. Intralobar BPA were isolated from slaughterhouse-derived bovine calf lungs, cleaned from surrounding tissue, and placed in 37° C. Dulbecco's Modified Eagle Medium (DMEM) containing 10% fetal bovine serum, penicillin, streptomycin, and fungizone (complete media). The arteries were isolated and cut into rings ˜2 mm in diameter and width, and the endothelium was removed by gentle rubbing of the lumen. Various compounds (i.e. ALA, FeSO4(Fe), deferoxamine) were added as described in the Results to various experimental groups, and these arteries were organ cultured overnight for 24 h in complete media in a 37° C.-5% CO2 incubator. Preliminary experiments on the time course for detection protoporphyrin IX accumulation and the effects of organ culture with doses of ALA in the 10-100 μM concentration range on contractile function, and minimizing the duration of organ culture were considerations that contributed to selecting the 24 h culture period used in this study.
Studies on the Regulation of Contractile Function. Following the overnight incubation, arterial rings were mounted on wire hooks attached to Grass (FT03) force displacement transducers for measurement of changes in isometric force. Tension was adjusted to 5 g, which is the optimal passive force for maximal contraction. Changes in force were recorded on a Grass polygraph (model 7), while vessels were incubated in 10-ml baths (Metro Scientific), which were individually thermostated (37° C.) in Krebs buffer gassed with 21% O2-5% CO2 (balance N2) in the absence of compounds used to modulate BPA protoporphyrin IX levels. Arteries were incubated for 1 h during which passive tension was adjusted to maintain 5 grams. The vessels were then depolarized with Krebs containing 123 mM KCl (High K^+) in place of NaCl, followed by re-equilibration with Krebs, prior to exposure to the experimental protocols. Following the wash with Krebs buffer after the High K^+ treatment, and a 30 min equilibration, BPA were then contracted with serotonin (5-HT) in a dose dependent manner to determine the response to this contractile agent. In some experiments, BPA were pretreated with the sGC inhibitor, 10 μM ODQ, for 15 min before contraction with serotonin. The effects of ODQ on relaxation to NO was determined by first contracting organ cultured control and ODQ-treated BPA with 1 μM 5-HT (after the initial exposure to increasing concentrations of 5-HT and a 30 min equilibration in Krebs).

[2] = test system: bovine pulmonary arteries (BPA); assay: Protoporphyrin IX-associated tissue fluorescence in organ cultured BPA rings; type: cell-based
Method: as §1
Determination Changes in Protoporphyrin 1× and Heme Levels. Methods for the detection of protoporphyrin IX tissue fluorescence developed for the detection in cancerous cells with tissue depths of up to several millimeters (27) were adapted for detecting changes in the endogenous levels of protoporphyrin IX in BPA rings which were organ cultured with ALA. When excited with light in the regions of 505 and 540 nm, protoporphyrin IX has an emission in the region of 635 nm. […] Increases in protoporphyrin IX were measured using an excitation wavelength of 528±20 nm and emission of 620±40 nm in intact vessels. Ring segments of approximately equal size (˜4 mm in diameter and length) were centered on the bottom of the ˜6 mm diameter wells of a 96 well microplate with 200 μl of Krebs containing with 10 mM Hepes buffer (pH 7.4), and the fluorescence was measured from the bottom surface of the plate using BIOTEK fluorescent microplate reader (Model FLx800i). Data are reported in the arbitrary fluorescence units measured (AU), after subtraction of the low levels of background fluorescence observed in the absence of BPA.

sGC [3] = biological target: T1, sGC (Bos taurus, UniProt P16068); assay: sGC activity in BPA homogenates (cGMP by ELISA); type: biochemical, bovine; set-up: Guanylate cyclase activity of homogenates of BPA was measured by enzyme immunoassay; from tissue; host or cells: BPA (pulmonary artery rings, organ cultured) homogenate; settings: organ culture with 100 μM ALA and/or 100 μM Fe
T1 sequence (P16068 1-619): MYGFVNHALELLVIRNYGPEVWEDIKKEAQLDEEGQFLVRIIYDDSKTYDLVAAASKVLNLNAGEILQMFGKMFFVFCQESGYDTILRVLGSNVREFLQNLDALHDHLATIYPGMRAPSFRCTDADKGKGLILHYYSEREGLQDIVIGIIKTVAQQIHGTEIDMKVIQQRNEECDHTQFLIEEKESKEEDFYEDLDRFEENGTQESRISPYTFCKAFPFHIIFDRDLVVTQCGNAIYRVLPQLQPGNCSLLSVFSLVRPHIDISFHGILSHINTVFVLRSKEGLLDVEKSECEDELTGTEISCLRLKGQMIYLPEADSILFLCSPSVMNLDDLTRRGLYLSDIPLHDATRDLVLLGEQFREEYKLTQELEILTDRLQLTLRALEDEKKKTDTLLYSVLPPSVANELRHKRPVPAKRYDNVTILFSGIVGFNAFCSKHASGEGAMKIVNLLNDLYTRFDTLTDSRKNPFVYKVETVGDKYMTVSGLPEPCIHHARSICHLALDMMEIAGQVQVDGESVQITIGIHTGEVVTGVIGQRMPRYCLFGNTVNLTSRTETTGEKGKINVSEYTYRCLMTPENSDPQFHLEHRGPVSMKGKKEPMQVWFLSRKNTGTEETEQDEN
T1 sequence (P19687 1-691 partner): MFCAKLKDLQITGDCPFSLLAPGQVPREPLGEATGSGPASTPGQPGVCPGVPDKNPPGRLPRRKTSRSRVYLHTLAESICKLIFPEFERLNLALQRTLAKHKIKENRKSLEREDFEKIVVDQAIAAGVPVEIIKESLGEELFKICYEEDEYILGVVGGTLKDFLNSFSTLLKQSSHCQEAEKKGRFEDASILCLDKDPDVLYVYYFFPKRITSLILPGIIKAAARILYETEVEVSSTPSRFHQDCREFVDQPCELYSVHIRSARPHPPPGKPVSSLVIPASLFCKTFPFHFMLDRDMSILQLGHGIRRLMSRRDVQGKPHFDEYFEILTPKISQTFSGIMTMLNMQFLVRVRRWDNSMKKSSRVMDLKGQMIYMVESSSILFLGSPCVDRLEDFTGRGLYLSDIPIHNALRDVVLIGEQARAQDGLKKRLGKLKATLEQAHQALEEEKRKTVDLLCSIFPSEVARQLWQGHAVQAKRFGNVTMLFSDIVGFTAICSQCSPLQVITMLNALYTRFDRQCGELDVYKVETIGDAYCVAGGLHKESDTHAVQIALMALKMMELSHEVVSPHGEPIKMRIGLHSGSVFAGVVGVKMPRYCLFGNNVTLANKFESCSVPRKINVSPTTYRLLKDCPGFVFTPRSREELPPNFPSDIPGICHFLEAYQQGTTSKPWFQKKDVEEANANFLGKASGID
Method: Guanylate cyclase activity of homogenates of BPA was measured by enzyme immunoassay of the amounts of cGMP generated. Briefly, BPA were pulverized in liquid nitrogen and homogenized in MOPS buffer 1:3 wt to buffer ratio at 5° C. Reaction mixture (0.2 ml final volume) contained 20 mM MOPS-KOH (pH 7.4), 0.1 mM GTP, 2 mM MgCl2, 0.3 mM of the phosphodiesterase inhibitor 3-Isobutyl-1-methylxanthine, a GTP-regenerating system consisting of 10 mM phosphocreatine and 150 U/ml creatine phosphokinase, and 0.1 ml of homogenate (11, 15), and test agents, as indicated. Assays of sGC activity were initiated by the addition of BPA homogenate. Incubations were conducted for 10 min at 37° C., and they were terminated by the addition of 0.1 ml of preheated 12 mM EDTA. This was followed by boiling the assay mixtures for 10 min and a subsequent addition of 5% trichloroacetic acid. The precipitate was removed by centrifugation and the supernatant was washed three times with water-saturated diethyl ether. Residual ether was removed by incubation at 70° C. for 5 minutes, prior to measurement of cGMP by ELISA (Cayman), as described in the manual supplied by manufacturer of the ELISA kit.

[4] = test system: bovine pulmonary arteries (BPA); assay: Heme content of BPA homogenates (QuantiChrom heme assay); type: cell-based; settings: organ culture with 100 μM ALA and/or 100 μM Fe
Method: Heme was quantified in BPA homogenates using a QuantiChrom heme assay kit purchased from BioAssay Systems, and changes in absorbance were measured in a BIOTEK scanning microplate spectrophotometer. Briefly, segments were homogenized in 20 mM MOPS+sucrose buffer and diluted to approximately 5 mg protein/ml. Homogenates were centrifuged at 2000×g for 5 min, and 50 μl of supernatant obtained were assayed for their heme content based on the manufacture's instructions, employing measurements of changes in absorbance at 400 nm. The protein content of the supernatant was measured with Biorad protein assay kit, and tissue heme levels were reported as nanomoles/mg protein.

[5] = test system: VASP serine-239 phosphorylation (cGMP-dependent protein kinase activation); assay: Western blot of VASP serine-239 phosphorylation in BPA; type: cell-based, bovine
Method: Rings from studies on contractile function were snap-frozen in liquid nitrogen, crushed and homogenized in lysis buffer (50 mM Tris-HCl, pH 8.0, 150 mM NaCl, 1 mM EDTA, 1% Triton X-100, 0.5% sodium deoxycholate, 0.1% sodium dodecyl sulfate, 1% of a protease inhibitor cocktail (Sigma) and 1% of a phosphatase inhibitor cocktail (Sigma). The protease inhibitor cocktail included 4-(2-aminoethyl)benzenesulfonyl floride hydrocholride, aprotinin, bestatin hydrochloride, N-(trans-epoxsuccinyl)-L-leucine-4-guanidinobutylamide, leupeptine hemisulfate, pepstatin and the phosphatase inhibitor cocktail included sodium orthovandate, sodium molybdate, sodium tartarate, and imidazole. Protein concentration was determined and 30 μg of protein samples were prepared in electrophoresis sample buffer containing 3% SDS and 3% β-mercaptoethanol and were separated using a 12% gel SDS-PAGE electrophoresis. Membranes were blocked for 1 h in TBST-5% milk and incubated overnight with phospho-VASP antibodies (diluted 1:1000). Membranes were exposed to a secondary horse radish peroxidase linked antibody and visualized with an ECL kit (Amersham). The membranes were subsequently exposed to X-OMAT autoradiography paper (Kodak). Membranes were stripped with TRIS-HCl buffer with 100 mM β-mercaptoethanol at 50° C. for 30 min. Membranes were subsequently washed, blocked and detected for total VASP. Each measurement of phosphorylated VASP was normalized to the total level of VASP, and data are reported as the percent of the levels of phosphorylated VASP seen in control arteries not exposed to agents which modulate the activity of sGC. Expression of sGC was detected with β-sGC subunit antibodies (diluted 1:2000), employing anti-rabbit secondary antibodies, and a protocol where membranes were blocked for 2 h. After analyzing for sGC protein expression, blots were stripped and re-probed for the detection of α-actin protein levels, which were used for normalization of data for statistical analysis based on protein loading.

bovine airways = assay: Superoxide detection by lucigenin chemiluminescence in bovine airways; type: cell-based; settings: 10 μM PDBu for 30 minutes
Method: Bovine bronchi were isolated from the same lungs used for pulmonary arteries, and studied for changes in protoporphyrin IX fluorescence and force under the same conditions as bovine pulmonary arteries described above. Superoxide was detected by the chemiluminescence produced by 5 μM lucigenin, which was detected by photon counting in a scintillation counter.

sGC [6] = biological target: T1, sGC; settings: reference (34), cited from earlier work
[7] = biological target: T2, sGC purified from bovine lungs (Bos taurus, UniProt P16068); settings: reference (34); cited from earlier work
T2 construct: host or cells: bovine lung
T2 sequence (P16068 1-619): T1 sequence (P16068 1-619)
T2 sequence (P19687 1-691 partner): T1 sequence (P19687 1-691 partner)

[8] = 100 μM Fe in the presence of 100 μM ALA
[9] = organ culture with 100 μM Fe alone
[10] = 10 μM ODQ on BPA organ cultured with 100 μM ALA

What does the source list for `O=S(=O)([O-])[O-].[Fe+2]` [Fe, FeSO4]?
force generation by 5-HT [1, 8]: reversed the force attenuating effects; force generation by 5-HT [1, 9]: did not alter force generation; protoporphyrin IX fluorescence [2, 8]: reversed the increase in protoporphyrin IX fluorescence; background fluorescence of BPA [2, 9]: did not alter the background fluorescence; BPA homogenate sGC activity (sGC [3]): did not alter sGC activity; BPA heme levels [4]: did not reach statistical significance

For `O=c1onc2cnc3ccccc3n12` [ODQ, 1H-[1,2,4]oxadiazolo[4,3-α]quinoxalin-1-one], which “force generation to 5-HT” value ([1]; 10 μM ODQ alone) is on record?
The value was “did not alter”.

What about the “decrease in contraction to 5-HT caused by ALA” value [1, 10] of the same compound?
Its value is “did not alter”.

What about the “relaxation to the NO donor” value ([1]; pretreatment with 10 μM ODQ, 10 μM spermine-NONOate) of the same compound?
Its value is “markedly attenuated relaxation”.

And the “VASP serine-239 phosphorylation” value ([5]; 10 μM ODQ alone, appeared to decrease)?
Its value is “did not reach statistical significance”.

And the “increase in VASP serine-239 phosphorylation caused by ALA” value [5, 10]?
The value was “did not significantly alter the increase in serine-239 VASP phosphorylation”.

And the “increase in VASP serine-239 phosphorylation caused by the NO donor” value ([5]; 10 μM ODQ with 10 μM spermine-NONOate)?
The value was “attenuate the increase caused by the NO donor”.

With `CCCC(=O)O[C@@H]1[C@@H](C)[C@@]2(O)[C@@H](C=C(CO)C[C@]3(O)C(=O)C(C)=C[C@@H]23)[C@@H]2C(C)(C)[C@]12OC(=O)CCC` [PDBu] as the compound, how does the “superoxide detected by 5 μM lucigenin chemiluminescence” value (bovine airways) read?
Its value is “causes an increase in superoxide”.

Which Kd (sGC [6]; read-out: binding affinity for the binding site on sGC) does the source give for `C=CC1=C(C)c2cc3[n-]c(cc4[n-]c(cc5nc(cc1n2)C(C)=C5C=C)c(C)c4CCC(=O)O)c(CCC(=O)O)c3C.[Fe+2]` [heme] here?
Its Kd is roughly 350 nM.

What about the “effect on activation of sGC by protoporphyrin IX” value [7] of the same compound?
Its value is “competitive inhibitor”.

With `C=CC1=C(C)c2cc3[nH]c(cc4nc(cc5[nH]c(cc1n2)c(C)c5CCC(=O)O)C(CCC(=O)O)=C4C)c(C)c3C=C` [protoporphyrin IX] as the compound, how does the “binding affinity for the binding site on sGC” value (sGC [6]) read?
Its value is “low nanomolar concentration range”.

With `NCCCNCCCCN(CCCN)/[N+]([O-])=N/O` [spermine-NONOate] as the compound, how does the “relaxation of organ cultured BPA” value ([1]; 10 μM spermine-NONOate) read?
The value was “relaxed”.

And the “VASP serine-239 phosphorylation” value ([5]; 10 μM spermine-NONOate)?
The value was “increased VASP phosphorylation”.
